Test system: 556581-035-R-J1 tumor spheroid viability, % test/control
Assay: Anticancer human tumor 556581-035-R-J1 patient-derived ovarian carcinoma cell line growth inhibition
Conditions: spheroids with HUVEC and MSC; for IC50: curve of first compound; for viability, T/C: stronger effect = lower value
Summary of the method: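 Single agents and combinations were tested on spheroids built from tumor cells plus HUVEC and hMSC, at half-log dilutions starting at or near clinical Cmax, else 10 microM; final DMSO 0.25% (v/v).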

[1] = second compound 0.003 µM, first compound 0.0316 µM
[2] = second compound 0.003 µM, first compound 0.1 µM
[3] = second compound 0.003 µM, first compound 0.316 µM
[4] = second compound 0.003 µM, first compound 1 µM
[5] = second compound 0.003 µM, first compound 3.16 µM
[6] = second compound 0.003 µM, first compound 10 µM
[7] = second compound 0.00949 µM, first compound 0.0316 µM
[8] = second compound 0.00949 µM, first compound 0.1 µM
[9] = second compound 0.00949 µM, first compound 0.316 µM
[10] = second compound 0.00949 µM, first compound 1 µM
[11] = second compound 0.00949 µM, first compound 3.16 µM
[12] = second compound 0.00949 µM, first compound 10 µM
[13] = second compound 0.03 µM, first compound 0.0316 µM
[14] = second compound 0.03 µM, first compound 0.1 µM
[15] = second compound 0.03 µM, first compound 0.316 µM
[16] = second compound 0.03 µM, first compound 1 µM
[17] = second compound 0.03 µM, first compound 3.16 µM
[18] = second compound 0.03 µM, first compound 10 µM
[19] = second compound 0.0949 µM, first compound 0.0316 µM
[20] = second compound 0.0949 µM, first compound 0.1 µM
[21] = second compound 0.0949 µM, first compound 0.316 µM
[22] = second compound 0.0949 µM, first compound 1 µM
[23] = second compound 0.0949 µM, first compound 3.16 µM
[24] = second compound 0.0949 µM, first compound 10 µM
[25] = second compound 0.3 µM, first compound 0.0316 µM
[26] = second compound 0.3 µM, first compound 0.1 µM
[27] = second compound 0.3 µM, first compound 0.316 µM
[28] = second compound 0.3 µM, first compound 1 µM
[29] = second compound 0.3 µM, first compound 3.16 µM
[30] = second compound 0.3 µM, first compound 10 µM
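Also: spheroids exposed to compounds for 7 days before viability read.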

CC1COCCN1c1cc(-c2ccnn2C)c2ccnc(-c3ccn[nH]3)c2n1 (stereo not given) + CC[C@@]1(O)C(=O)OCc2c1cc1n(c2=O)Cc2cc3c(CN(C)C)c(O)ccc3nc2-1 gave an IC50 (second compound 0.003 µM) of 317 nM, an IC50 (second compound 0.00949 µM) of 141 nM and an IC50 (second compound 0.03 µM) of under 31.6 nM. For the same molecule, the IC50 (second compound 0.0949 µM) was under 31.6 nM, the IC50 (second compound 0.3 µM) was under 31.6 nM and the viability, T/C [1] was 85.3%. The viability, T/C [2] was 66.5%, the viability, T/C [3] was 50.2% and the viability, T/C [4] was 39%. It also gave a viability, T/C [5] of 33.7%, a viability, T/C [6] of 30.8% and a viability, T/C [7] of 68.9%. The viability, T/C [8] was 53.5%, the viability, T/C [9] was 40.9% and the viability, T/C [10] was 38.1%. It also gave a viability, T/C [11] of 31.6%, a viability, T/C [12] of 29.2% and a viability, T/C [13] of 42%. The viability, T/C [14] was 35.3%, the viability, T/C [15] was 35.5% and the viability, T/C [16] was 35.1%. For the same molecule, the viability, T/C [17] was 29.8%, the viability, T/C [18] was 28.4% and the viability, T/C [19] was 21.6%. For the same molecule, the viability, T/C [20] was 20%, the viability, T/C [21] was 20.5% and the viability, T/C [22] was 26.5%. It also gave a viability, T/C [23] of 27.1%, a viability, T/C [24] of 27% and a viability, T/C [25] of 4.51%. It also gave a viability, T/C [26] of 5.08%, a viability, T/C [27] of 6.11% and a viability, T/C [28] of 10.5%. The viability, T/C [29] was 16.3% and the viability, T/C [30] was 15.6%.
COc1cc(C)[nH]c(=O)c1CN1CCc2c(Cl)cc(C(OC)C3COC3)c(Cl)c2C1=O (stereo not given) + CC[C@@]1(O)C(=O)OCc2c1cc1n(c2=O)Cc2cc3c(CN(C)C)c(O)ccc3nc2-1 was tested, and the IC50 (second compound 0.003 µM) was over 10000 nM, the IC50 (second compound 0.00949 µM) was over 10000 nM and the IC50 (second compound 0.03 µM) was over 10000 nM. For the same molecule, the IC50 (second compound 0.0949 µM) was under 31.6 nM, the IC50 (second compound 0.3 µM) was under 31.6 nM and the viability, T/C [1] was 93.5%. For the same molecule, the viability, T/C [2] was 103%, the viability, T/C [3] was 98.2% and the viability, T/C [4] was 101%. The viability, T/C [5] was 101%, the viability, T/C [6] was 94.9% and the viability, T/C [7] was 90%. It also gave a viability, T/C [8] of 92.1%, a viability, T/C [9] of 85.8% and a viability, T/C [10] of 87.1%. For the same molecule, the viability, T/C [11] was 91.5%, the viability, T/C [12] was 86.3% and the viability, T/C [13] was 64.9%. It also gave a viability, T/C [14] of 65.1%, a viability, T/C [15] of 64.3% and a viability, T/C [16] of 65.3%. For the same molecule, the viability, T/C [17] was 67.9%, the viability, T/C [18] was 65.4% and the viability, T/C [19] was 45.3%. It also gave a viability, T/C [20] of 48.7%, a viability, T/C [21] of 49.9% and a viability, T/C [22] of 49.2%. It also gave a viability, T/C [23] of 47.9%, a viability, T/C [24] of 47.1% and a viability, T/C [25] of 13.2%. The viability, T/C [26] was 9.94%, the viability, T/C [27] was 12.4% and the viability, T/C [28] was 12%. For the same molecule, the viability, T/C [29] was 10.7% and the viability, T/C [30] was 11.1%.

Reference: PubChem BioAssay AID1845199 (Molecular Pharmacology Branch, DTP, NCI, 2023)
